Results: ChEMBL document CHEMBL1201862, “PubChem BioAssay data set” (2004)
Values joined by “and” are separate entries in the source; they are usually repeats but may differ in a detail not shown here. Identical values can stand only once.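 Results reflect a 48-hour exposure of cells in 96-well plates to compound at five concentrations. Abbreviation: GI50, concentration required for 50% inhibition of growth.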 Active and inactive are the calls of the source. No stated cut-off is given here; in the data, active = GI50 up to about 1.1 µM and inactive = higher.

How the values were obtained:
Test in all cases: DTP human tumour cell line panel, 48 h
EKVX = test system: EKVX
SF-539 = test system: SF-539
NCI/ADR-RES = test system: NCI/ADR-RES
HOP-62 = test system: HOP-62
T47D = test system: T47D
ACHN = test system: ACHN
A498 = test system: A498
SK-MEL-28 = test system: SK-MEL-28
HCT-15 = test system: HCT-15
MDA-N = test system: MDA-N
OVCAR-3 = test system: OVCAR-3
SK-MEL-5 = test system: SK-MEL-5
HT-29 = test system: HT-29
MDA-MB-435 = test system: MDA-MB-435
NCI-H23 = test system: NCI-H23
Hs-578T = test system: Hs-578T
A549 = test system: A549
SN12C = test system: SN12C
LOX IMVI = test system: LOX IMVI
MOLT-4 = test system: MOLT-4

Row | Compound | GI50 (EKVX) | GI50 (SF-539) | GI50 (NCI/ADR-RES) | GI50 (HOP-62) | GI50 (T47D) | GI50 (ACHN) | GI50 (A498) | GI50 (SK-MEL-28) | GI50 (HCT-15) | GI50 (MDA-N) | GI50 (OVCAR-3) | GI50 (SK-MEL-5) | GI50 (HT-29) | GI50 (MDA-MB-435) | GI50 (NCI-H23) | GI50 (Hs-578T) | GI50 (A549) | GI50 (SN12C) | GI50 (LOX IMVI) | GI50 (MOLT-4)
1 | CCc1ncc(CO)n1Cc1cccc2ccccc12 | > 100 µM (inactive) | > 100 µM (inactive) | 50.9 µM (inactive) | > 100 µM (inactive) | 77.3 µM (inactive) | > 100 µM (inactive) | > 100 µM (inactive) | > 100 µM (inactive) | > 100 µM | > 100 µM (inactive) | > 100 µM (inactive) | > 100 µM (inactive) | 96.8 µM (inactive) | > 100 µM (inactive) | > 100 µM (inactive) | > 100 µM (inactive) | > 100 µM (inactive) | > 100 µM (inactive) | – | –
2 | COc1cc(OCc2ccc3nc(-c4ccccc4)c(N)nc3c2)cc(OC)c1OC | 19.7 µM (inactive) | 20.7 µM (inactive) | 20.7 µM (inactive) | – | 14.4 µM (inactive) | 20.8 µM (inactive) | 27.1 µM (inactive) | 19.3 µM (inactive) | 17.3 µM | 15.5 µM (inactive) | 16.4 µM (inactive) | 11.3 µM (inactive) | – | 19.1 µM (inactive) | – | 21.2 µM (inactive) | 20.6 µM (inactive) | 25.7 µM (inactive) | 13.7 µM (inactive) | 8.13 µM (inactive)
3 | O=c1c2c3ccccc3[nH]c2c2cccc3c2n1CCC3 | 20.6 µM (inactive) | 40.1 µM (inactive) | 50 µM (inactive) | 54.1 µM (inactive) | 61 µM (inactive) | 41.1 µM (inactive) | 20.7 µM (inactive) | 41.8 µM (inactive) | 32.4 µM | 66.5 µM (inactive) | 30.6 µM (inactive) | 17.6 µM (inactive) | 29.6 µM (inactive) | 54.6 µM (inactive) | 45.8 µM (inactive) | 21.2 µM (inactive) | 48.1 µM (inactive) | 53.1 µM (inactive) | – | 25.5 µM (inactive)
4 | N#CCC(=O)N/N=C\C(O)C(O)C(O)C(O)CO (stereo not given) | – | > 100 µM (inactive) | > 100 µM (inactive) | > 100 µM (inactive) | > 100 µM (inactive) | > 100 µM (inactive) | > 100 µM (inactive) | > 100 µM (inactive) | > 100 µM | > 100 µM (inactive) | > 100 µM (inactive) | > 100 µM (inactive) | > 100 µM (inactive) | > 100 µM (inactive) | > 100 µM (inactive) | > 100 µM (inactive) | > 100 µM (inactive) | > 100 µM (inactive) | > 100 µM (inactive) | > 100 µM (inactive)
5 | O=C1OC(c2ccccc2)=N/C1=C\c1cccc(F)c1 | > 100 µM (inactive) | – | 27.7 µM (inactive) | 38.6 µM (inactive) | > 100 µM (inactive) | > 100 µM (inactive) | > 100 µM (inactive) | 96.6 µM (inactive) | > 100 µM | 56.6 µM (inactive) | 37 µM (inactive) | 51.4 µM (inactive) | > 100 µM (inactive) | 75 µM (inactive) | > 100 µM (inactive) | 36.3 µM (inactive) | > 100 µM (inactive) | > 100 µM (inactive) | 22.2 µM (inactive) | 32.3 µM (inactive)
6 | CC1(C)OC(=O)N(c2ccccc2)C12C=Cc1cccc([N+](=O)[O-])c1O2 (stereo not given) | 60.8 µM (inactive) | – | 48.2 µM (inactive) | > 100 µM (inactive) | 43.4 µM (inactive) | > 100 µM (inactive) | 50.2 µM (inactive) | 90.8 µM (inactive) | 90.2 µM | 42.5 µM (inactive) | > 100 µM (inactive) | 72.8 µM (inactive) | 98.9 µM (inactive) | 33 µM (inactive) | 55.3 µM (inactive) | 73.6 µM (inactive) | 79.1 µM (inactive) | > 100 µM (inactive) | 97.3 µM (inactive) | 15.1 µM (inactive)
7 | Cc1ccc(-c2c3c(n(C4OC(CO)C(O)C(O)C4O)c(=S)c2C#N)CC(C)(C)CC3=O)cc1 (stereo not given) | – | 39.6 µM (inactive) | > 100 µM (inactive) | > 100 µM (inactive) | 34.4 µM (inactive) | 65.5 µM (inactive) | > 100 µM (inactive) | 52.2 µM (inactive) | 45.9 µM | 46 µM (inactive) | > 100 µM (inactive) | 34.6 µM (inactive) | 33.1 µM (inactive) | 65.2 µM (inactive) | > 100 µM (inactive) | 70.6 µM (inactive) | > 100 µM (inactive) | > 100 µM (inactive) | 48.3 µM (inactive) | 36.5 µM (inactive)
8 | O=C(O)CCCC(=O)Nn1c(Cc2ccc(Cl)cc2)n[nH]c1=O | > 100 µM (inactive) | – | > 100 µM (inactive) | > 100 µM (inactive) | > 100 µM (inactive) | > 100 µM (inactive) | 71.6 µM (inactive) | > 100 µM (inactive) | > 100 µM | > 100 µM (inactive) | > 100 µM (inactive) | > 100 µM (inactive) | > 100 µM (inactive) | > 100 µM (inactive) | > 100 µM (inactive) | > 100 µM (inactive) | > 100 µM (inactive) | > 100 µM (inactive) | > 100 µM (inactive) | > 100 µM (inactive)
9 | O=c1ccn([C@@H]2C[C@@H]2CO)c(=O)[nH]1 | > 100 µM (inactive) | > 100 µM (inactive) | > 100 µM (inactive) | > 100 µM (inactive) | > 100 µM (inactive) | > 100 µM (inactive) | > 100 µM (inactive) | > 100 µM (inactive) | > 100 µM | > 100 µM (inactive) | – | > 100 µM (inactive) | > 100 µM (inactive) | > 100 µM (inactive) | > 100 µM (inactive) | > 100 µM (inactive) | > 100 µM (inactive) | > 100 µM (inactive) | > 100 µM (inactive) | –
10 | CN(C)CCOC1(Cc2ccc(F)cc2)CCC(C(C)(C)C)CC1 (stereo not given) | 11 µM (inactive) and 16 µM (inactive) | – | 12.9 µM (inactive) and 10.6 µM (inactive) | 7 µM (inactive) and 6.82 µM (inactive) | 4.34 µM (inactive) and 5.09 µM (inactive) | 11 µM (inactive) and 12.9 µM (inactive) | 12.6 µM (inactive) and 14.7 µM (inactive) | 6.05 µM (inactive) and 4.17 µM (inactive) | 8.13 µM and 6.81 µM | 3.2 µM (inactive) and 5.93 µM (inactive) | 8.67 µM (inactive) and 13.4 µM (inactive) | 1.93 µM (inactive) and 1.74 µM (inactive) | 2.88 µM (inactive) and 2.7 µM (inactive) | 3.51 µM (inactive) and 4.54 µM (inactive) | 13.3 µM (inactive) and 12 µM (inactive) | 11.7 µM (inactive) and 14 µM (inactive) | 9.77 µM (inactive) and 11.9 µM (inactive) | 11.3 µM (inactive) and 12 µM (inactive) | 2.42 µM (inactive) and 3.2 µM (inactive) | 3.13 µM (inactive) and 2.61 µM (inactive)
11 | NC(=O)C1=C(c2ccccc2)c2ccccc2C1=O | 18.8 µM (inactive) | – | 17.7 µM (inactive) | 14.9 µM (inactive) | 19.1 µM (inactive) | 11.4 µM (inactive) | 28 µM (inactive) | 20.1 µM (inactive) | 12.3 µM | 19.5 µM (inactive) | 11.8 µM (inactive) | 16.3 µM (inactive) | 16.6 µM (inactive) | 26.1 µM (inactive) | 18.1 µM (inactive) | 24.8 µM (inactive) | 18.6 µM (inactive) | 18.5 µM (inactive) | 7.98 µM (inactive) | 3.37 µM (inactive)
